Measurements: patent publication US20030072781A1, “Calcified tissue facing preparation containing antimicrobial agent” (Advantage Dental Products, Inc., priority 1998, published 2003)

Test system: Strept. mutans
Test: Strept. mutans culture rinse, colony count
Format: cell-based
Conditions: 30 second submersion, counted after 48 hours
Method: Standardized cultures of Strept. mutans are grown in petri dishes and subjected to 30 second submersion in 20 milliliters of various concentration rinses of aqueous chlorohexidine. A 0.04% chlorohexidine solution and water serve as controls. Thereafter, the petri dishes are incubated and colony members counted after 48 hours.

SMILES: [H]/N=C(\N/C(=N/[H])NCCCCCCNC(=N)NC(=N)Nc1ccc(Cl)cc1)Nc1ccc(Cl)cc1 [Chlorohexidine, chlorohexidine]
- Colony Member After Rinse (0.04 wt. % aqueous rinse (control)): 26
- Colony Member After Rinse (0.2 wt. % aqueous rinse): 0
- Colony Member After Rinse (0.5 wt. % aqueous rinse): 1
- Colony Member After Rinse (1.0 wt. % aqueous rinse): 1
- Colony Member After Rinse (2.0 wt. % aqueous rinse): 0
- Colony Member After Rinse (5.0 wt. % aqueous rinse): 2
- Colony Member After Rinse (10.0 wt. % aqueous rinse): 0
